{
  "source": "patent US10772324B2",
  "about": "“Aqueous adjuvant-compositions” (CLARIANT FINANCE (BVI) LIMITED, priority 2012, dated 2020)",
  "assay_in_all_cases": "Greenhouse trial: effect of adjuvants on activity of glyphosate IPA (fresh weight)",
  "format_in_all_cases": "in vivo",
  "key": {"[1]": {"tested_on": "Cirsium arvense L. (CIRAR)", "settings": "fresh weight relative to untreated plant, 14 days after application; 20.3 g a.e./ha glyphosate IPA; adjuvant 0.25 wt % in spray solution", "experimental": "(§1) For the purpose of determining the biological activity, greenhouse trials were carried out with glyphosate on Echinochloa crus-galli (L.) Beauv. (ECHCG), Cirsium arvense L. (CIRAR), and Solanum nigrum L. (SOLNI). The plants were cultivated in a greenhouse under 14 hours of irradiation with light at a temperature of 19/14 (±0.5°) C. (day/night) and a relative humidity of 70/80 (±5)% (day/night). The light was supplied via high-pressure sodium lamps, high-pressure mercury lamps, and fluorescent tubes, producing a power of 70 W/m^2 at the leaf level. The plants were grown in 12 cm diameter plastic pots filled with a mixture of sand and humus in a sand:humus ratio of 1:2 by volume.\n(§2) The pots were placed on an under-soil watering mat, which was wetted daily with a medium-strength nutrient solution. Following their appearance at the substrate surface, seedlings were thinned out to five (ECHCG), two (CIRAR), or one (SOLNI) plant per pot for the activity tests.\n(§3) The spray solutions were applied using a laboratory sprayer operated with compressed air and fitted with a Teejet TP8003E nozzle at an application rate of 200 l/ha to the plants at 303 kPa. ECHCG was treated at the two- to three-leaf stage; CIRAR and SOLNI were treated at the four-leaf stage.\n(§4) For the more differentiated examination of the adjuvant effect, the glyphosate active ingredient was underdosed, meaning that the plants are not completely killed. This was done using aqueous solutions of glyphosate-isopropylammonium salt (glyphosate IPA). The amount of glyphosate used was 33.8 g a.e./ha glyphosate IPA (corresponding to 1.0 mmol or 0.17 g a.e./l for a liquid volume of […]) in the case of ECHCG, and at 20.3 g a.e./ha glyphosate IPA (corresponding to […] or 0.10 g a.e./l at a liquid volume of 200 l/ha) for CIRAR and SOLNI. […]\n(§5) The activity of the various adjuvants was assessed 14 days after application, by determining the mass of the plant parts still present (fresh weight; FW), and was reported as a percentage fraction, relative to the untreated plant (Table 3)."}, "[2]": {"tested_on": "Echinochloa crus-galli (L.) Beauv. (ECHCG)", "settings": "fresh weight relative to untreated plant, 14 days after application; 33.8 g a.e./ha glyphosate IPA; adjuvant 0.25 wt % in spray solution", "experimental": "as §1, §2, §3, §4, §5"}, "[3]": {"tested_on": "Solanum nigrum L. (SOLNI)", "settings": "fresh weight relative to untreated plant, 14 days after application; 20.3 g a.e./ha glyphosate IPA; adjuvant 0.25 wt % in spray solution", "experimental": "as §1, §2, §3, §4, §5"}},
  "data": [
    {"substance": "glyphosate-isopropylammonium salt [Glyphosate IPA]", "values": [
      {"measurement": "FW in % (CIRAR)", "setting": "[1]", "value": 95.9, "unit": "%"},
      {"measurement": "FW in % (ECHCG)", "setting": "[2]", "value": 74.3, "unit": "%"},
      {"measurement": "FW in % (SOLNI)", "setting": "[3]", "value": 84.5, "unit": "%"}
    ]}
  ]
}
